Reference: ChEMBL document CHEMBL5357029, “Informatics and Computational Approaches for the Discovery and Optimization of Natural Product-Inspired Inhibitors of the SARS-CoV-2 2'-O-Methyltransferase” (J Nat Prod, 2024)
pEC50, pIC50: −log10 of the molar value. Active and inactive are the calls of the source. The rule behind the calls is not given here.

Legend:
PBMC = assay: Cytotoxicity against human PBMC cells assessed as inhibition of cell proliferation incubated for 2 to 4 days by CellTiter 96 non-radioactive cell proliferation assay; assay type: toxicity, cell-based; settings: time 2-4 day
[1] = (§1) Cytotoxicity against African green monkey Vero cells assessed as inhibition of cell proliferation incubated for 2 to 4 days by CellTiter 96 non-radioactive cell proliferation assay; assay type: toxicity, cell-based; settings: chlorocebus sabaeus, Vero cells; time 2-4 day
SARS-CoV-2 = assay: Antiviral activity against SARS-CoV-2 USA-WA1/2020 infected in african green monkey Vero cells assessed as reduction in viral replication by qRT-PCR analysis; assay type: functional, organism-based; settings: Severe acute respiratory syndrome coronavirus 2, USA-WA1/2020, Vero
[2] = test system: Severe acute respiratory syndrome coronavirus 2; assay: Inhibition of SARS-CoV-2 nsp10/nsp16 2'-O-methyltransferase activity expressed in NiCo21 (DE3) cells using m7GpppAUUAA and S-adenosylmethionine as substrate at 10 uM incubated for 25 mins by luminescence based MTase Glo assay
[3] = Inhibition of SARS-CoV-2 nsp10/nsp16 2'-O-methyltransferase activity expressed in NiCo21 (DE3) cells using m7GpppAUUAA and S-adenosylmethionine as substrate by filter binding assay; design: species or system Severe acute respiratory syndrome coronavirus 2
Vero = assay: as §1; assay type: toxicity, cell-based; settings: chlorocebus sabaeus, vero; time 2-4 day
[4] = Inhibition of SARS-CoV-2 nsp10 (1 to 139 residues)/nsp16 (1 to 298 residues) expressed in Escherichia coli BL21(DE3)RIL cells using RNA and [3H]SAM as substrate incubated for 1 hrs by SPA-based assay; design: species or system Severe acute respiratory syndrome coronavirus 2

## CCC(CC)COC(=O)[C@H](C)N[P@](=O)(OC[C@H]1O[C@@](C#N)(c2ccc3c(N)ncnn23)[C@H](O)[C@@H]1O)Oc1ccccc1
PBMC
  CC50: 2 µM
[1]
  CC50: > 100 µM
SARS-CoV-2
  pEC50: 5.64

## CC1=CC[C@H]2[C@H](C1)c1c(/C=C/c3ccc(O)cc3)cc(O)cc1OC2(C)C
[2]
  inhibition: Active
[3]
  pIC50: 4.87
PBMC
  CC50: 60.4 µM
Vero
  CC50: 11.9 µM
SARS-CoV-2
  pEC50: 5.33

## CC1=CC[C@H]2[C@H](C1)c1c(O)cc(/C=C/c3ccc(O)cc3)cc1OC2(C)C
[2]
  inhibition: Active
[3]
  pIC50: 4.88
PBMC
  CC50: 53.4 µM
Vero
  CC50: 22.3 µM
SARS-CoV-2
  pEC50: 5.15

## Nc1ncnc2c1ncn2[C@@H]1O[C@H](C[C@@H](N)CC[C@H](N)C(=O)O)[C@@H](O)[C@H]1O [SINEFUNGIN]
[4]
  pIC50: 5.47
[2]
  inhibition: Active
